Data as given in paper PMC11636681, “Pharmacokinetics and pharmacodynamics of antibacterial peptide NZX in Staphylococcus aureus mastitis mouse model” (Applied Microbiology and Biotechnology, 2024).
In brackets after ≈: the same amount, converted by molar mass. Positions of bridges follow the written chain, without caps; N, C: chain ends. Residues, ends and D or L forms follow the SMILES beside them.

Key:
[1] = system: S. aureus ATCC 43300; experiment: Post antibiotic effect (PAE); type: cell-based, Staphylococcus aureus; conditions: 2 h exposure at 1 × to 8 × MIC, 1 × 10^8 CFU/mL, triplicate
Procedure: PAE was performed based on the method of Zhang et al. (Zhang et al. [2014]). S. aureus E48, S. aureus ATCC 25923 and S. aureus ATCC 43300 were cultured at 37 °C in MHB medium to the log-phase. Then, the diluted cells (1 × 10^8 CFU/mL) were exposed to NZX with final concentration of 1 × , 2 × , 4 × and 8 × MIC in the 48-well plates for 2 h at 37 °C. After incubation, NZX were removed by diluting 1:1000 with MHB medium. Viable counts were determined immediately after drug reconstruction and at 1–2 h interval for at least 10 h. PAE determination was calculated as PAE (h) = T-C, where T is the time (h) that required to increase by tenfold for the drug-treated viable count from the moment of drug reconstruction and C is the time (h) required to increase by tenfold for cell density without treatment. The experiments were conducted in triplication.

[2] = system: S. aureus E48; experiment: In vitro dose-killing curves (24 h); type: cell-based, Staphylococcus aureus; conditions: for EC50: Staphylococcus aureus, 50% reduction in Log10 CFU at 24 h between minimum and maximum; for Cs: concentration causing no apparent growth in Log10 CFU at 24 h vs initial inoculum
Procedure: (§1) The in vitro dose-killing curves of NZX against the test S. aureus strains were conducted as previous described (Brinch et al. [2010]), with some modification. The S. aureus cells in mid-log phage were diluted. Then, the killing curves of NZX against S. aureus strains were carried out in the 48-well plate. Specifically, a volume of 50 μL NZX (0.6–150 μM) was mixed with 450 μL of the above diluted bacterial suspension (5 × 10^5 CFU/mL), and the mixtures were incubated in the Micro Oscillator for 24 h (600 rpm, 37 °C). Subsequently, the bacteria suspensions were plated on MHA medium to count. Lincomycin and ceftiofur were set as antibiotic controls, respectively. PBS was negative control. Results were expressed as the average of three independent experiments data.

[3] = system: S. aureus ATCC 25923; experiment: In vitro dose-killing curves (24 h); type: cell-based, Staphylococcus aureus; conditions: for EC50: Staphylococcus aureus, ATCC25923, 50% reduction in Log10 CFU at 24 h between minimum and maximum; for Cs: concentration causing no apparent growth in Log10 CFU at 24 h vs initial inoculum
Procedure: as §1

[4] = system: S. aureus E48; experiment: MIC and MBC determination (CLSI broth microdilution); type: cell-based; conditions: Staphylococcus aureus; for MIC: 1 × 10^5 CFU/mL, 16–18 h, 37 °C; for MBC: lowest concentration giving 99.9% died bacteria
Procedure: (§2) Minimal Inhibitory Concentration (MIC), Minimal Bactericidal Concentration (MBC) and Mutant Prevention Concentration (MPC).
(§3) The MIC and MBC values of NZX against the test S. aureus strain were determined according to Clinical Laboratory Standards Institute (Watts et al. [2013]). Briefly, a volume of 10 μL diluted NZX with final concentration (1.25–1280 μg/mL) and 90 μL of mid-log phase S. aureus cells (1 × 10^5 CFU/mL) were added into a 96-well plate and co-incubated for 16–18 h at 37 °C. MIC value was defined as the lowest concentration of NZX at which no visible bacterial growth was observed. In addition, the bacteria suspensions were plated on Mueller–Hinton agar (MHA) medium to count, and the lowest concentration of NZX that results in 99.9% of died bacteria was the MBC value.

[5] = system: S. aureus ATCC 25923; experiment: as above; type: cell-based; conditions: Staphylococcus aureus; for MIC: ATCC25923, 1 × 10^5 CFU/mL, 16–18 h, 37 °C; for MBC: ATCC25923, lowest concentration giving 99.9% died bacteria
Procedure: as §2, §3

[6] = system: S. aureus ATCC 43300; experiment: as above; type: cell-based; conditions: Staphylococcus aureus; for MIC: ATCC43300, 1 × 10^5 CFU/mL, 16–18 h, 37 °C; for MBC: ATCC43300, lowest concentration giving 99.9% died bacteria
Procedure: as §2, §3

[7] = system: S. aureus ATCC 43300; experiment: Mutant prevention concentration (MPC) on MHA plates; type: cell-based, Staphylococcus aureus; conditions: 1 × 10^10 CFU/mL, 37 °C, 72 h, each concentration three times
Procedure: as §2
MPCs of NZX against the test S. aureus strain were determined as described by Plowgian et al., with some modification (Plowgian et al. [2019]). In brief, S. aureus cells were cultured to mid-log phase in Mueller–Hinton broth (MHB) medium. Then the suspensions were centrifuged (4000 rpm for 5 min) and the pellets were collected and diluted to a final concentration of 1 × 10^10 CFU/mL with MHB. […] All plates were incubated at 37 ^∘C for 72 h and the concentration corresponding to the plate with no bacterial growth was regarded as the provisional mutant prevention concentration (MPCpr). […] Lincomycin and ceftiofur were set as antibiotic controls, respectively. Each concentration was conducted three times.

CO/N=C(\C(=O)N[C@@H]1C(=O)N2C(C(=O)O)=C(CSC(=O)c3ccco3)CS[C@H]12)c1csc(N)n1 [Ceftiofur]
mean PAE range [1]: 0.82 to 1.76 h
EC50 [2]: 1.18 µM
Cs [2]: 1.11 µM
EC50 [3]: 0.71 µM
Cs [3]: 0.77 µM
MIC [4]: 1.83 µM (≈ 0.958 µg/mL)
MBC [4]: 3.67 µM (≈ 1.92 µg/mL)
MIC [5]: 1.83 µM (≈ 0.958 µg/mL)
MBC [5]: 3.67 µM (≈ 1.92 µg/mL)
MIC [6]: 1.83 µM (≈ 0.958 µg/mL)
MBC [6]: 1.83 µM (≈ 0.958 µg/mL)
MPC [7]: 7.32 µM

CCC[C@@H]1C[C@@H](C(=O)N[C@@H]([C@H]2O[C@H](SC)[C@H](O)[C@@H](O)[C@H]2O)[C@@H](C)O)N(C)C1 [Lincomycin]
EC50 [2]: 1.47 µM
Cs [2]: 1.38 µM
EC50 [3]: 2.31 µM
Cs [3]: 2.57 µM
MIC [4]: 2.17 µM (≈ 0.882 µg/mL)
MBC [4]: 4.34 µM (≈ 1.76 µg/mL)
MIC [5]: 2.17 µM (≈ 0.882 µg/mL)
MBC [5]: 4.34 µM (≈ 1.76 µg/mL)
MIC [6]: > 139 µM
MBC [6]: > 139 µM

CC[C@H](C)[C@@H]1NC(=O)[C@H](CO)NC(=O)[C@H](CCCCN)NC(=O)[C@@H]2CSSC[C@@H](C(=O)N[C@@H](Cc3ccc(O)cc3)C(=O)O)NC(=O)[C@H](CCCCN)NC(=O)[C@@H]3CSSC[C@H](NC(=O)[C@H](CCC(N)=O)NC(=O)[C@H]([C@@H](C)CC)NC(=O)[C@H](CC(=O)O)NC(=O)[C@H](CC(=O)O)NC(=O)[C@H](CCC(=O)O)NC(=O)[C@H](CO)NC(=O)[C@H](Cc4c[nH]c5ccccc45)NC(=O)[C@@H]4CCCN4C(=O)CNC(=O)[C@H](CC(N)=O)NC(=O)[C@@H](NC(=O)CNC(=O)[C@H](Cc4ccccc4)NC(=O)CN)CSSC[C@H](NC(=O)[C@H](Cc4ccc(O)cc4)NC(=O)CNC(=O)CNC(=O)[C@H](CCCCN)NC(=O)[C@H](Cc4ccc(O)cc4)NC(=O)CNC(=O)[C@H](CCCCN)NC1=O)C(=O)N[C@@H](C)C(=O)N[C@@H](CCCNC(=N)N)C(=O)NCC(=O)NCC(=O)N[C@@H](Cc1ccccc1)C(=O)N[C@@H](C(C)C)C(=O)N3)C(=O)N[C@@H](Cc1c[nH]cn1)C(=O)N[C@@H](CC(N)=O)C(=O)N[C@@H](Cc1c[nH]cn1)C(=O)N2 [NZX] (H-GFGCNGPWSEDDIQCHNHCKSIKGYKGGYCARGGFVCKCY-OH; disulfide 4-30, 15-37, 19-39; N-terminus and C-terminus assumed)
mean PAE range [1]: 0.00 to 8.48 h
MPC [7]: 1.18 µM
